Test results published in patent publication US20050070594A1, “Use of angiotensin II receptor antagonists” (Boehringer Ingelheim International GmbH, priority 2003, published 2005).

Tests used:
[1] = target: T1, human PPARgamma-ligand binding domain (LBD) (Homo sapiens, UniProt P37231); test: AlphaScreen: recruiting of biotinylated LXXLL peptide of cofactor CBP to GST-PPARgamma-LBD; type: biochemical
T1 construct: codes for the amino acids 205-505 of the human PPARgamma2 transcription factor; made in house; host or cells: E. coli BL21(DE3), vector pGEX-4T-1
T1 sequence (P37231 205-505): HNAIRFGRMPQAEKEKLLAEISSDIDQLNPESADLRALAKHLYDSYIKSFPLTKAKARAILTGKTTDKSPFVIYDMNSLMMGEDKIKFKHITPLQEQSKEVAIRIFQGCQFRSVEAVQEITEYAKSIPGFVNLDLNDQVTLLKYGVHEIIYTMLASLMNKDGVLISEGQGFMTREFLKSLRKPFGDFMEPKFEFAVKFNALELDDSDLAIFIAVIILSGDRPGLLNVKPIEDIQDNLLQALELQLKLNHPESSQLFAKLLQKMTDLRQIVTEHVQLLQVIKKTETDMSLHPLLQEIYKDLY
Method: Protein containing the human PPARgamma-ligand binding domain (LBD) is prepared as a GST fusion protein in E.coli and purified by affinity chromatography. […] The fusion protein is expressed in the E.coli strain BL21(DE3) recommended for pGEX vectors after induction with 0.2 mM IPTG for 4 hours at 25° C. The bacteria are pelleted after the induction and frozen in batches in PBS, pH 7.4. After opening up in a French Press, the dissolved GST-PPARgamma-LBD-fusion protein is purified using a GSTrap column (Pharmacia). Elution is carried out by the addition of 20 mM reduced glutathione.
The GST-PPARgamma-LBD-protein fractions are desalinated using a HiTrap desalting column (Pharmacia) and the protein concentration is determined using a standard assay.
The assay buffer consists of 25 mM Hepes pH7.4, 100 mM NaCl,1 mM DTT, 0.1% Tween-20, 0.1% BSA. […] The final DMSO concentration in the assay is 1% (v/v). A 1% DMSO solution is used as the background control (NSB). The measurement is done using a Packard fusion measuring device.

3T3-L1 adipocytes = test: Lipid accumulation and differentiation of 3T3-L1 adipocytes (Oil Red-O staining); type: cell-based, mouse
Source text: (§1) 3T3-L1 mouse preadipocytes are cultivated in DMEM (Dulbecco's modified eagle medium) with 10% foetal calf serum (FBS). PC12W cells are cultivated in DMEM with 5% FBS and 10% equine serum. In both cases the media contain 1% penicillin/streptomycin.
(§2) The differentiation of adipocytes is induced 2-3 days after cell confluence by adding a differentiating solution. This contains • 1 μmol/L of dexamethasone, • 0.5 mmol/L of 3-isobutyl-1-methylxanthine, • 1.67 μmol/L of insulin, and • 10% FBS.
(§3) Then the cells are stimulated for another 48 hours before finally being analysed (day 4).
Cells are washed with PBS and fixed with a 3.7% formaldehyde solution for 2 minutes. After fixing, the cells are stained for 1 hour at ambient temperature with a 0.5% stock solution of Oil Red-O in isopropanol diluted 3:2 with water. After washing, the cells are examined under a light microscope.

[2] = system: Adipose Protein 2 (aP2) expression; test: Stimulation of aP2 expression in 3T3-L1 cells (real time PCR); type: cell-based, mouse; details: 10 μmol/L
Source text: as §1, §2, §3
RNA isolation, reverse transcription and quantification of gene expression are carried out using an ABI 7000 sequence detection system-for real time PCR (described in Janke et al, Diabetes 51:1699-707, 2002). The endogenous control used for the real time PCR consists of the household genes 18S rRNA and hypoxanthine guanine phosphoribosyl transferase (hprt).

PPARgamma [3] = test: Transcription reporter assay (PPRE-luciferase) in 3T3-L1 adipocytes; type: cell-based, mouse; details: 10 μmol/L, 24 hours
Method: (§4) 3T3-L1 adipocytes (day 4) or PC12W cells are transfected with Lipofectamine 2000 (Invitrogen) in the presence of 1 μg (for 3T3-L1 cells) or 50 ng (for PC12W cells) of a reporter construct, PPARgamma2 and RXRalpha expression vectors and 10 ng of a Renilla Luciferase Reporter control vector. The reporter construct is a fusion of 3xAcyl-CoA oxidase PPAR Response Element (PPRE) with Tk-luciferase. […] The Luciferase Reporter control vector is the plasmid pRL-CMV (Promega).

PPARgamma [4] = target: T2, PPARgamma (Homo sapiens, UniProt P37231); test: Transcription reporter assay (PPRE-luciferase) in AT1-receptor-deficient PC12W cells; type: cell-based; details: 10 μmol/L
T2 construct: expressed in transfected cells; host or cells: PC12W cells (AT1-receptor-deficient), transient transfection
T2 sequence (P37231 1-505): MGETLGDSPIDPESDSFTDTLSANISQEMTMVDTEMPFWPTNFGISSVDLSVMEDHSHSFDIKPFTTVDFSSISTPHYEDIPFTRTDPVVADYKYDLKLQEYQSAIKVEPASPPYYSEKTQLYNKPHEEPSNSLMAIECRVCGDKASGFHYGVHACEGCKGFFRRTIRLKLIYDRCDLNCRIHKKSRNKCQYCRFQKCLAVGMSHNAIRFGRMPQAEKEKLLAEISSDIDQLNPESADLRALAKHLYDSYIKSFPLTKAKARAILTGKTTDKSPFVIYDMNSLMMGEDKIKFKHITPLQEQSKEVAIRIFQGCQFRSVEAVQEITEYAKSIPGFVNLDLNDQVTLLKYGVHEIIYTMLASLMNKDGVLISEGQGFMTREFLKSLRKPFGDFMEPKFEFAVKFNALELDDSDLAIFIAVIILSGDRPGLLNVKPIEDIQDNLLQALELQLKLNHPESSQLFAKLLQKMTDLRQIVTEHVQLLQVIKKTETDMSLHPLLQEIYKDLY
T2 sequence (P19793 1-462 partner): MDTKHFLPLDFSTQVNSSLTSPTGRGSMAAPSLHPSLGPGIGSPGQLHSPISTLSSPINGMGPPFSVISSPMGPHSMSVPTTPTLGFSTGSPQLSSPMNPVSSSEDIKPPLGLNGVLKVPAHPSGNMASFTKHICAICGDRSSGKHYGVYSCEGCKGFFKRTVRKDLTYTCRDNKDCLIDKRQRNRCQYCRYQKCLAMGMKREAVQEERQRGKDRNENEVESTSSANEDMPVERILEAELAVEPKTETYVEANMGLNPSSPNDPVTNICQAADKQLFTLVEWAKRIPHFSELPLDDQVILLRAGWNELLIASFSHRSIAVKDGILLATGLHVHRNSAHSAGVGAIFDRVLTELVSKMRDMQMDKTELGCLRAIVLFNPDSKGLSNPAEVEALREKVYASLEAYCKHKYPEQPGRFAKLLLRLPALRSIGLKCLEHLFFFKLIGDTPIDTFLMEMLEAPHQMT
Method: as §4
PC12W cells are AT1-receptor-deficient.

CCCc1nc2c(C)cc(-c3nc4ccccc4n3C)cc2n1Cc1ccc(-c2ccccc2C(=O)O)cc1 [telmisartan]
AlphaScreen signal (MW) ([1]; 1.00E−05 M test substance): 847 | AlphaScreen signal (MW) ([1]; 1.00E−06 M test substance): 677 | AlphaScreen signal (MW) ([1]; 1.00E−07 M test substance): 606 | AlphaScreen signal (MW) ([1]; 3.00E−06 M test substance): 720 | AlphaScreen signal (MW) ([1]; 3.00E−07 M test substance): 644 | AlphaScreen signal (MW) ([1]; 3.00E−08 M test substance): 642 | AlphaScreen signal (MW) ([1]; 5.00E−05 M test substance): 1111 | direct activation of the PPARgamma-LBD / recruiting of the LXXLL peptide ([1]; concentrations of up to 50 μM): does not result in any direct activation | differentiation of 3T3-L1 adipocytes (3T3-L1 adipocytes): promoted | accumulation of lipids (Oil Red-O staining) (3T3-L1 adipocytes; 10 μmol/L, day 4): increased accumulation of lipids | stimulation of aP2 expression, factor [2]: 3.1±0.3 | induction of the transcriptional activity of PPARgamma, factor (PPARgamma [3]): 3.4±0.9 | regulation of the PPARgamma activity (PPARgamma [4]; PC12W cells in the absence of exogenous PPARgamma2/RXRalpha): no regulation | induction of PPARgamma activity, factor (PPARgamma [4]; PC12W cells overexpressing PPARgamma2/RXRalpha): 1.9±0.4
